Results as given in patent US20160199320A1, “Ophthalmic Treatments” (Optosolve Research & Development Limited, priority 2011, published 2016).

Tests used:
undamaged eye = conditions: topically applied to an undamaged eye; cited from earlier work
eye [1] = assay: pilocarpine drops for constriction of the pupil, with or without tramadol drops; format: in vivo
Protocol: In a first example, an eye was treated with pilocarpine drops to cause constriction of the pupil (in this particular example, as part of an ophthalmic diagnostic procedure, although pilocarpine is also be used therapeutically). Such drops can cause significant discomfort and excessive tear formation, possibly washing pilocarpine out of the eye before it could take effect. […] This implies that the tramadol may well be improving the absorption of other drugs.

eye [2] = assay: ciclosporin composition with added tramadol, post-operative treatment following a corneal transplant; format: in vivo; conditions: addition of 0.5% w/v tramadol to the composition
From the text: In a second example, a composition containing ciclosporin would normally be administered to the eye in post-operative treatment following a corneal transplant, to avoid transplant rejection. However, this would lead to significant additional levels of discomfort in the eye.

eye [3] = assay: eye-drop formulation with tramadol in the left eye of a healthy subject, sensation in the eye; format: in vivo, human; conditions: 0.5% w/v tramadol eye-drop
Protocol: In a third example, a conventional ophthalmic eye-drop formulation was made up, but with the addition of 0.5% w/v tramadol. This formulation was administered to the left eye of a healthy subject. […] Sensation in the right eye remained normal.

eye [4] = assay: fourth example: patient suffering from dry-eye, tramadol eye-drops, artificial tears, or combination; format: in vivo, human; conditions: topical
From the text: In a fourth example, administration of the tramadol-containing eye-drop formulation of the third example to a patient suffering from “dry-eye” reduced the resultant discomfort as expected. […] However, the discomfort remained, which for many patients would lead to actions such as rubbing the affected eye, counteracting much of the improvement.

eye [5] = assay: sixth example: tramadol eye-drops in a painful infection of the eye; format: in vivo, human
From the text: In a sixth example, an infection of the subject's eye required treatment with antibiotics. However, the subject was unable to open the respective eyelid due to the consequent pain.

eye [6] = assay: seventh example: tramadol eye-drops in allergic eye disease; format: in vivo, human
From the text: In a seventh example, a person presented with an allergic eye disease, resulting in significant prolonged itchiness.

eye [7] = assay: eighth example: tramadol eye-drops in dry eyes with unstable tear films, tear osmolarity and pain; format: in vivo, human; conditions: for pain: dry eye
From the text: In an eighth example, a person presented with dry eyes and unstable tear films, typical symptoms of “dry eye”. The patient's tear osmolarity improved, after use of an eye-drop containing 0.5% w/v tramadol in one eye, from 312 milliOsmoles before instillation of the eye drop to 299 milliOsmoles one hour after instillation.

eye [8] = assay: ninth example: tramadol eye-drops in blepharitis with reduced tear break-up time; format: in vivo, human; conditions: eye-drops containing 1.0% w/v tramadol
From the text: In a ninth example, a middle-aged person with blepharitis and no corneal staining but a reduced tear break-up time was given eye-drops containing 1.0% w/v tramadol.

[9] = drops containing tramadol administered before or in conjunction with the pilocarpine drops
[10] = tramadol 0.5% w/v where present
[11] = eye-drop formulation comprising 0.5% w/v tramadol
[12] = middle-aged person with blepharitis

CN1CC[C@]23c4c5ccc(O)c4O[C@H]2[C@@H](O)C=C[C@H]3[C@H]1C5 [morphine]
analgesic effect (undamaged eye): very little or no analgesic effect

COc1cccc(C2(O)CCCCC2CN(C)C)c1 (centres unmarked) [tramadol]
discomfort caused by pilocarpine drops (eye [1]; [9]): greatly reduced
tear formation caused by pilocarpine drops (eye [1]; [9]): greatly reduced
effectiveness of the ciclosporin (eye [2]): improve
discomfort in the eye from ciclosporin composition (eye [2]; post corneal transplant): significantly reduce
duration of numbing effect (eye [3]): at least 110 minutes
side-effects (eye [3]): No side-effects were noted
time to noticeably reduced sensation in the eye after instillation (eye [3]): ≤ 3 min
blinking (eye [4]; tramadol 0.5% w/v): reduction in blinking
discomfort / pain (eye [4]; [10]): reduced
dryness / lubrication of the eye (eye [4]; [10]): dryness remained
physical signs (symptoms and signs) (eye [4]; [10]): did not improve
resolution of the infection (eye [5]; 0.5% w/v tramadol followed by antibiotics): more rapidly than would have been expected
discomfort (eye [5]; [11]): rapidly reduced
opening of the eyelid (eye [5]; [11]): permitting opening of the eyelid
vision in the treated eye (eye [5]; [11]): allowed reasonable vision
associated redness (eye [6]; allergic eye disease, eye-drop containing 0.5% w/v tramadol, versus saline drops alone): improved with time faster than for the conventional treatment with saline drops alone
itchiness (eye [6]; allergic eye disease, person, eye-drop containing 0.5% w/v tramadol): improved within a few minutes
results in allergic eye disease (itchiness, redness) (eye [6]; eye-drop containing 1.0% w/v tramadol, compared with 0.5% w/v): even more rapid and effective results
pain (eye [7]; eye-drop containing 0.5% w/v tramadol): reduced
pain (eye [7]; eye-drop containing 1.0% w/v tramadol): reduced the patient's pain further
tear osmolarity (eye [7]; one hour after instillation of eye-drop containing 0.5% w/v tramadol, 312 milliOsmoles before instillation, person with dry eye): 299 milliOsmoles
blepharitis (eye [8]; middle-aged male): improved
irritable symptoms (eye [8]; [12]): improvement
tear break-up time (eye [8]; [12]): improved, and so did the tear break-up time

CC[C@@H]1C(=O)OC[C@@H]1Cc1cncn1C [pilocarpine]
effectiveness in constriction of the pupil (eye [1]; 0.5% w/v pilocarpine administered promptly after or in conjunction with tramadol): as effective as 1% w/v pilocarpine administered without tramadol present
